Each structure is given as a SMILES string.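 Where inhibition never reached the appropriate level, the endpoint shown equals the highest concentration tested. Otherwise, values were interpolated linearly from a five-concentration, 48-hour dose response in 96-well plates. GI50: concentration for 50% inhibition of growth. Definition used: TGI = concentration required for complete inhibition of growth.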

Some test systems named below: HOP-62 NSCLC; HT29 colon; KM20L2 colon; OVCAR-8 ovarian; RXF 393 renal; SK-MEL-5 melanoma; SR leukemia; TK-10 renal; HCT-116 colon; MCF7 breast.
Holding throughout (experiment): NCI tumour cell line growth inhibition, 48 h

`COC1=CC(=O)[C@@]2(C)C(C)[C@H](c3ccccc3)[C@H]2C1=O` (stereo partly specified): the TGI in the experiment with HOP-62 NSCLC, with HT29 colon, in the experiment with KM20L2 colon, in the experiment on OVCAR-8 ovarian, in the experiment with RXF 393 renal and with SK-MEL-5 melanoma was above 100 µM in each case. Also, the TGI with SR leukemia and in the experiment with TK-10 renal was above 100 µM in each case.

With `CNC(=O)OC1/C(C)=C\C(C)C(O)C(OC)CC(C)CC2=C(OC)C(=O)C=C(C2=O)N(C)C(=O)/C(C)=C/C=C\C1OC` (stereo unspecified), the TGI in the experiment with HCT-116 colon was 21.1 µM; in the experiment on HOP-62 NSCLC it was 24 µM; with HT29 colon it was 17 µM; in the experiment with KM20L2 colon, 15.5 µM; in the experiment on OVCAR-8 ovarian, 21.1 µM; in the experiment with RXF 393 renal, 17.9 µM. Further, the values for the TGI with SK-MEL-5 melanoma and in the experiment on TK-10 renal were 21.5 µM and 22 µM, respectively.

For the compound `N#C/C(=C/c1ccc([N+](=O)[O-])o1)c1ccccc1`, the TGI in the experiment with HCT-116 colon, in the experiment on HOP-62 NSCLC, in the experiment on HT29 colon, with KM20L2 colon, with OVCAR-8 ovarian and in the experiment on RXF 393 renal was above 100 µM in each case. In addition, the TGI with SK-MEL-5 melanoma, in the experiment with SR leukemia and in the experiment with TK-10 renal was above 100 µM each time.

In the case of `O=C1C=C2SC3C[C@@]24CC1(O)[N+]1=c2c4c(c(O)c4c2=C(C=N4)CC1)N3`, the TGI with HCT-116 colon worked out at 0.492 µM; in the experiment on HOP-62 NSCLC, 3.24 µM; with HT29 colon, 1.01 µM; in the experiment on KM20L2 colon it was 1.08 µM; with MCF7 breast, 0.972 µM; with OVCAR-8 ovarian, 3.63 µM. The TGI with RXF 393 renal was 2.71 µM; in the experiment with SK-MEL-5 melanoma, 2.91 µM.

Turning to `O=[N+]([O-])c1ccc(N=P(c2ccccc2)(c2ccccc2)c2ccccc2)n2nnnc12`, the TGI in the experiment on HOP-62 NSCLC was 90.2 µM; in the experiment with HT29 colon, above 100 µM; in the experiment with KM20L2 colon it was above 100 µM; with OVCAR-8 ovarian, above 100 µM; with RXF 393 renal, above 100 µM; with SK-MEL-5 melanoma, above 100 µM. Besides, in the experiment on TK-10 renal, the TGI is above 100 µM.

Take `CC(=O)OC1CCC2(C)C(CCC3C2CCC2(C)C(c4ccc(=O)oc4)C(OC(C)=O)CC32O)C1` (stereo unspecified): the TGI in the experiment with HCT-116 colon came to 0.036 µM; with HOP-62 NSCLC, 0.0331 µM; in the experiment with HT29 colon, 0.527 µM; with KM20L2 colon, 0.092 µM; in the experiment on MCF7 breast, 0.229 µM; in the experiment with OVCAR-8 ovarian, 0.0951 µM. Besides, the TGI with RXF 393 renal worked out at 0.0128 µM; with SK-MEL-5 melanoma, 0.0216 µM.

Regarding `O=C1CCNC/C1=C\c1ccccc1`, the TGI was determined as 47.4 µM in the experiment with HCT-116 colon; 79 µM in the experiment on HOP-62 NSCLC; 32.9 µM with HT29 colon; 28.4 µM with KM20L2 colon; 43.4 µM with OVCAR-8 ovarian; 40.2 µM in the experiment on SK-MEL-5 melanoma. Further, the TGI with SR leukemia is above 100 µM; with TK-10 renal, 61.2 µM.

In the case of `O=C(CC(C(=O)c1ccsc1)c1cccs1)c1cccs1` (stereo unspecified), the TGI in the experiment with HCT-116 colon, in the experiment on HOP-62 NSCLC, in the experiment on HT29 colon, in the experiment with KM20L2 colon, with OVCAR-8 ovarian and in the experiment with RXF 393 renal was above 100 µM each time. Further, the results for the TGI in the experiment with SK-MEL-5 melanoma, with SR leukemia and with TK-10 renal were 85.6 µM, above 100 µM and above 100 µM, respectively.

With `O=C(Cn1c(=O)oc2ccccc21)N(c1ccccc1)c1ccccc1`, the TGI in the experiment on HCT-116 colon, in the experiment on HOP-62 NSCLC, with HT29 colon, in the experiment with MCF7 breast, in the experiment on OVCAR-8 ovarian and in the experiment on RXF 393 renal was above 100 µM each time. Also, the TGI with SK-MEL-5 melanoma, with SR leukemia and in the experiment on TK-10 renal was above 100 µM throughout.

Take `C1CCC(CC2CCC(NC3=NCCO3)CC2)CC1` (stereo unspecified): the TGI with HCT-116 colon is 30.6 µM; in the experiment with HOP-62 NSCLC it was 39.4 µM; with HT29 colon, 17.1 µM; in the experiment with MCF7 breast, 32.1 µM; in the experiment with OVCAR-8 ovarian, 30.9 µM; with RXF 393 renal, 36.6 µM. The TGI with SK-MEL-5 melanoma is 33.7 µM; with SR leukemia it was 52.6 µM; in the experiment on TK-10 renal, 28.6 µM.

`c1c2c(cc3c1OCO3)-c1ncc3cc4c(cc3c1C2)OCO4`: the GI50 with HCT-116 colon is below 0.0305 µM; in the experiment on HOP-62 NSCLC, 0.112 µM; in the experiment with HT29 colon it was below 0.01 µM; in the experiment on MCF7 breast, below 0.0377 µM; in the experiment on OVCAR-8 ovarian, 0.111 µM; in the experiment with RXF 393 renal, 0.797 µM. The GI50 with SK-MEL-5 melanoma is 0.216 µM; with SR leukemia, below 0.01 µM; in the experiment with TK-10 renal, 0.143 µM. The TGI in the experiment on HCT-116 colon was above 61.2 µM; in the experiment with HOP-62 NSCLC it was 27.5 µM; in the experiment on HT29 colon, above 100 µM; with MCF7 breast, 7.44 µM; with OVCAR-8 ovarian, 10.7 µM; in the experiment on RXF 393 renal, 43.5 µM. Further, the results for the TGI in the experiment on SK-MEL-5 melanoma and in the experiment with TK-10 renal were 0.479 µM and 3.87 µM, respectively.

`Clc1ccc(Cc2nc3cc4ccccc4cc3[nH]2)cc1Cl`: the TGI is above 100 µM in the experiment on HCT-116 colon; 82.9 µM in the experiment on HOP-62 NSCLC; 28.5 µM in the experiment with HT29 colon; 67.3 µM with MCF7 breast; 49.8 µM in the experiment on OVCAR-8 ovarian; 40.2 µM in the experiment on RXF 393 renal. Further, the TGI in the experiment with SK-MEL-5 melanoma was 20.4 µM; with SR leukemia, 30.8 µM; with TK-10 renal it was 39.8 µM.

On to `Cc1n[nH]c(=O)c2c3c([nH]c12)-c1ccccc1C3`, for which the TGI in the experiment with HCT-116 colon, in the experiment with HOP-62 NSCLC, with HT29 colon, in the experiment on MCF7 breast, in the experiment on OVCAR-8 ovarian and in the experiment on RXF 393 renal was above 100 µM in each case. The TGI with SK-MEL-5 melanoma, with SR leukemia and with TK-10 renal was above 100 µM throughout.

For the compound `Cc1cc2c3ccccc3n3c2c2c1OC1(C)CCC(C2C1)C3(C)C` (stereo unspecified), the TGI in the experiment with HCT-116 colon, in the experiment on HOP-62 NSCLC, in the experiment with HT29 colon, in the experiment on KM20L2 colon, in the experiment with OVCAR-8 ovarian and in the experiment on SK-MEL-5 melanoma was above 25 µM each time. The TGI in the experiment with SR leukemia and with TK-10 renal was above 25 µM in each case.

The record behind these values is PubChem BioAssay (NCI).
